Source: US9040545B2, “Heterocyclyl pyrazolopyrimidine analogues as selective JAK inhibitors” (Cellzome Limited, priority 2010, dated 2015)

Target: T1, Aurora B (Homo sapiens, UniProt Q96GD4)
T1 construct: cell lysates from Jurkat cells (ATCC TIB-152) used; endogenous in cells; host or cells: Jurkat cells (ATCC TIB-152), treated with pervanadate
Experiment: Kinobeads assay, Aurora B
Assay type: binding
Conditions: for IC50: lysate of pervanadate-treated Jurkat cells, read-out: Inhibition values (IC50) Aur B

T1 sequence (Q96GD4 whole entry): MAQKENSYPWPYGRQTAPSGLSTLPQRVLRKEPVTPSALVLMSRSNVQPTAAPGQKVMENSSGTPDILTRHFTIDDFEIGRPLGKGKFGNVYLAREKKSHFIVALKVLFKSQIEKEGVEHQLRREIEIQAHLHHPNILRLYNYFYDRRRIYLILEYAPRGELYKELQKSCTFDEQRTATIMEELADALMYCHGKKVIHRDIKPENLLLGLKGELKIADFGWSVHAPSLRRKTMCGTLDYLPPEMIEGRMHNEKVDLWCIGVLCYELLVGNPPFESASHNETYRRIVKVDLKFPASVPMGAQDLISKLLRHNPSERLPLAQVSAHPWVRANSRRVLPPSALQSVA

Compound	JAK3/AurB Fold Selectivity	IC50 [nM]
Cn1cc(Nc2ncc3cnn(Cc4cc(N5CCNCC5=O)cc(F)c4F)c3n2)cn1 [Example 71, 1-(3,4-Difluoro-5-((6-((1-methyl-1H-pyrazol-4-yl)amino)-1H-pyrazolo[3,4-d]pyrimidin-1-yl)methyl)phenyl)piperazin-2-one]	10-50 Fold	100 to 1000
O=C1CNCCN1c1cc(F)c(F)c(Cn2ncc3cnc(Nc4cnn(CCO)c4)nc32)c1 [Example 72, 1-(3,4-Difluoro-5-((6-((1-(2-hydroxyethyl)-1H-pyrazol-4-yl)amino)-1H-pyrazolo[3,4-d]pyrimidin-1-yl)methyl)phenyl)piperazin-2-one]	10-50 Fold	100 to 1000
Cn1cc(Nc2ncc3cnn(Cc4cc(F)cc(N5CCOCC5=O)c4F)c3n2)cn1 [Example 73, 4-(2,5-Difluoro-3-((6-((1-methyl-1H-pyrazol-4-yl)amino)-1H-pyrazolo[3,4-d]pyrimidin-1-yl)methyl)phenyl)morpholin-3-one]	10-50 Fold	100 to 1000
O=C1COCCN1c1cc(F)cc(Cn2ncc3cnc(Nc4cnn(CCO)c4)nc32)c1F [Example 74, 4-(2,5-Difluoro-3-((6-((1-(2-hydroxyethyl)-1H-pyrazol-4-yl)amino)-1H-pyrazolo[3,4-d]pyrimidin-1-yl)methyl)phenyl)morpholin-3-one]	10-50 Fold	< 100
CN(C)CCCn1cc(Nc2ncc3cnn(Cc4c(F)ccc(N5CCOCC5=O)c4F)c3n2)cn1 [Example 75, 4-(3-((6-((1-(3-(Dimethylamino)propyl)-1H-pyrazol-4-yl)amino)-1H-pyrazolo[3,4-d]pyrimidin-1-yl)methyl)-2,4-difluorophenyl)morpholin-3-one]	3-10 Fold	< 100
Cn1cc(Nc2ncc3cnn(Cc4c(F)ccc(N5CCNCC5=O)c4F)c3n2)cn1 [Example 76, 1-(2,4-Difluoro-3-((6-((1-methyl-1H-pyrazol-4-yl)amino)-1H-pyrazolo[3,4-d]pyrimidin-1-yl)methyl)phenyl)piperazin-2-one]	3-10 Fold	100 to 1000
COC1CCN(c2cccc(Cn3ncc4cnc(Nc5cnn(C)c5)nc43)c2)CC1 [Example 77, 1-(3-(4-Methoxypiperidin-1-yl)benzyl)-N-(1-methyl-1H-pyrazol-4-yl)-1H-pyrazolo[3,4-d]pyrimidin-6-amine]	3-10 Fold	100 to 1000
OCCn1cc(Nc2ncc3cnn(Cc4cc(N5CCNCC5)cc(F)c4F)c3n2)cn1 [Example 78, 2-(4-((1-(2,3-Difluoro-5-(piperazin-1-yl)benzyl)-1H-pyrazolo[3,4-d]pyrimidin-6-yl)amino)-1H-pyrazol-1-yl)ethanol]	3-10 Fold	< 100
Cn1cc(Nc2ncc3cnn(Cc4cc(F)cc(C(=O)N5CCOCC5)c4)c3n2)cn1 [Example 79, (3-Fluoro-5-((6-((1-methyl-1H-pyrazol-4-yl)amino)-1H-pyrazolo[3,4-d]pyrimidin-1-yl)methyl)phenyl)(morpholino)methanone]	>50 Fold	1000 to 10000
Cn1cc(Nc2ncc3cnn(Cc4cc(F)cc(C(=O)N5CCNCC5)c4)c3n2)cn1 [Example 80, (3-Fluoro-5-((6-((1-methyl-1H-pyrazol-4-yl)amino)-1H-pyrazolo[3,4-d]pyrimidin-1-yl)methyl)phenyl)(piperazin-1-yl)methanone]	10-50 Fold	100 to 1000
Fc1cc(N2CCOCC2)c(F)c(Cn2ncc3cnc(Nc4cn[nH]c4)nc32)c1F [Example 81, N-(1H-Pyrazol-4-yl)-1-(2,3,6-trifluoro-5-morpholinobenzyl)-1H-pyrazolo[3,4-d]pyrimidin-6-amine]	10-50 Fold	100 to 1000
OCCn1cc(Nc2ncc3cnn(Cc4c(F)ccc(N5CCOCC5)c4F)c3n2)cn1 [Example 82, 2-(4-((1-(2,6-Difluoro-3-morpholinobenzyl)-1H-pyrazolo[3,4-d]pyrimidin-6-yl)amino)-1H-pyrazol-1-yl)ethanol]	3-10 Fold	< 100
OCCn1cc(Nc2ncc3cnn(Cc4cccc(N5CCNCC5)c4F)c3n2)cn1 [Example 83, 2-(4-((1-(2-Fluoro-3-(piperazin-1-yl)benzyl)-1H-pyrazolo[3,4-d]pyrimidin-6-yl)amino)-1H-pyrazol-1-yl)ethanol]	3-10 Fold	< 100
O=C1COCCN1c1cc(F)cc(Cn2ncc3cnc(Nc4cn[nH]c4)nc32)c1 [Example 84, 4-(3-((6-((1H-Pyrazol-4-yl)amino)-1H-pyrazolo[3,4-d]pyrimidin-1-yl)methyl)-5-fluorophenyl)morpholin-3-one]	10-50 Fold	100 to 1000
O=C(c1cccc(Cn2ncc3cnc(Nc4cnn(CCO)c4)nc32)c1F)N1CCOCC1 [Example 85, (2-Fluoro-3-((6-((1-(2-hydroxyethyl)-1H-pyrazol-4-yl)amino)-1H-pyrazolo[3,4-d]pyrimidin-1-yl)methyl)phenyl)(morpholino)methanone]	>50 Fold	1000 to 10000
Cn1cc(Nc2ncc3cnn(Cc4cc(N5CCNCC5)cc(F)c4F)c3n2)cn1 [Example 86, 1-(2,3-Difluoro-5-(piperazin-1-yl)benzyl)-N-(1-methyl-1H-pyrazol-4-yl)-1H-pyrazolo[3,4-d]pyrimidin-6-amine]	10-50 Fold	100 to 1000
Cn1cc(Nc2ncc3cnn(Cc4cccc(C(=O)N5CCOCC5)c4F)c3n2)cn1 [Example 87, (2-Fluoro-3-((6-((1-methyl-1H-pyrazol-4-yl)amino)-1H-pyrazolo[3,4-d]pyrimidin-1-yl)methyl)phenyl)(morpholino)methanone]	>50 Fold	1000 to 10000
Cn1cc(Nc2ncc3cnn(Cc4cccc(N5CCOCC5O)c4)c3n2)cn1 (stereo not drawn) [Example 88, 4-(3-((6-((1-Methyl-1H-pyrazol-4-yl)amino)-1H-pyrazolo[3,4-d]pyrimidin-1-yl)methyl)phenyl)morpholin-3-ol]	>50 Fold	1000 to 10000
